The subject of the assay is OTMN-induced tremor in rat. Description: Potentiation of oxotremorine (OTMN)-induced tremor in rat (potentiation of cholinergic responses). It is filed as in vivo. The following applies: for minimal effective dose: Rattus norvegicus, ip, read-out: Potentiation of OTMN-induced tremor in rat. How it is done:
Potentiation of cholinergic responses
Male rats (Sprague Dawley Alab Laboratorietjänst AB, Sollentuna, Sweden) weighing 150-180 g, 35-40 days of age, were used. The animals were allowed free access to food (R3, Ewos AB, Södertälje, Sweden) and water until the start of the experiments. The test compounds were injected intraperitoneally (i.p.) 30 minutes before injection of the muscarine agonist oxotremorine (OTM) into the neck (s.c.). Tremor intensity was assessed visually for a 60 minutes period following the injection of OTMN in rat housed in Macrolon cages (25x25x30 cm) (three per cage). The threshold dose of OTMN for eliciting tremor in rat is about 200 µg/kg.
Tremor intensity was scored using the following rating scale: 0 = no tremor; 1 = slight tremor (moderate, discontinuous tremor; 2 = strong tremor (intense, continuous tremor involving the whole body). The animals were scored 5, 10, 15, 30 and 60 minutes after injection of OTMN. The tremor was scored for a period of 30 seconds.
The values for each observation were summed over the entire observation period (5-60 minutes) and their median values for each group were calculated (total median score). Mann-Whitney U-test (two-tailed) was used to determine differences between the control OTMN group and test groups receiving the compounds + OTMN. […].
The lowest dose causing a significant (p<0.05) potentiation of the OTMN response was determined from log-dose response curves.

Setting [1] is: lowest dose causing a significant (p<0.05) potentiation of the OTMN response, from log-dose response curves, test compound i.p. 30 minutes before oxotremorine s.c., male Sprague Dawley rats, tremor scored 5-60 minutes.

Like-named read-outs stand apart in the source and are kept apart here.

Take `CCC(N)CC(=O)C(C)(C)Cc1ccc(F)cc1` (centres unmarked) [Example 5, 5-amino-2,2-dimethyl-1-(4-fluorophenyl)-3-heptanone]: the minimal effective dose under setting [1] turned out to be 0.63 mg/kg.

As to `CCCCCC(N)CC(O)C(C)(C)Cc1ccc(F)cc1.O=C(O)C(=O)O` (centres unmarked) [Example 9, 5-Amino-2,2-dimethyl-1-(4-fluorophenyl)-3-decanol oxalate], the minimal effective dose under setting [1] was determined as 5 mg/kg.

With `CCC(N)CC(=O)C(C)(C)Cc1ccc(F)cc1.O=C(O)C(=O)O` (racemic) [Example 1, 5-amino-2,2-dimethyl-1-(4-fluorophenyl)-3-heptanone oxalate], the minimal effective dose under setting [1] amounted to 0.63 mg/kg.

For `CCC(N)CC(=O)C(C)(C)Cc1ccc(F)cc1` (centres unmarked) [Example 6, 5-amino-2,2-dimethyl-1-(4-fluorophenyl)-3-heptanone], the “Potentiation of OTMN-induced tremor in rat” value under setting [1] turned out to be 0.63 mg/kg.

For `CCC(N)CC(O)C(C)(C)Cc1ccc(F)cc1.O=C(O)C(=O)O` (centres unmarked) [Example 7, 5-Amino-2,2-dimethyl-1-(4-fluorophenyl)-3-heptanol oxalate], under setting [1], the minimal effective dose was found to be 2.5 mg/kg.

Turning to `CC(C)C(N)CC(=O)C(C)(C)Cc1ccc(F)cc1.O=C(O)C(=O)O` (centres unmarked) [Example 12, 5-Amino-1-(4-fluorophenyl)-2,2,6-trimethyl-3-heptanone oxalate], under setting [1], the minimal effective dose amounted to 2.5 mg/kg.

Regarding `CC(C)C(N)CC(O)C(C)(C)Cc1ccc(F)cc1.O=C(O)C(=O)O` (centres unmarked) [Example 8, 5-Amino-1-(4-fluorophenyl)-2,2,6-trimethyl-3-heptanol oxalate], the minimal effective dose under setting [1] was found to be 10 mg/kg.

Turning to `CC(N)C(=O)OC(C)(C)Cc1ccc(Cl)cc1` (centres unmarked) [Alaproclate, alaproclate, reference compound], the minimal effective dose came out at 5 mg/kg.

The values are drawn from patent EP0322391A1, “New phenylalkylamine derivatives” (priority 1987, dated 1989).
